# From patent publication US7183238B2, “[1,2]-oxazine-3,5-diones” (Bayer CropScience AG, priority 2001, dated 2007)
# Key:
# Type in all cases: in vivo
# [1] = tested on: greenhouse red spider mite (Tetranychus urticae); experiment: Tetranychus test (OP-resistant/dip treatment); settings: 100 ppm active compound, OP-resistant, infested bean plants (Phaseolus vulgaris) dipped
# Protocol: Tetranychus Test (OP-Resistant/dip Treatment)
# • Solvent: 7 parts by weight of dimethylformamide • Emulsifier: 2 parts by weight of alkylaryl polyglycol ether
# To produce a suitable preparation of active compound, 1 part by weight of active compound is mixed with the stated amounts of solvent and emulsifier, and the concentrate is diluted with emulsifier-containing water to the desired concentration.
# Bean plants (Phaseolus vulgaris) which are heavily infested by all stages of the greenhouse red spider mite (Tetranychus urticae) are dipped into a preparation of active compound of the desired concentration.
# After the desired period of time, the effect in % is determined. 100% means that all spider mites have been killed; 0% means that none of the spider mites has been killed.
# [2] = tested on: caterpillars of the armyworm (Spodoptera frugiperda); experiment: Spodoptera frugiperda test; settings: 500 ppm active compound, cabbage leaves (Brassica oleracea) dipped
# Protocol: (§1) Spodoptera frugiperda Test • Solvent: 7 parts by weight of dimethylformamide • Emulsifier: 2 parts by weight of alkylaryl polyglycol ether To produce a suitable preparation of active compound, 1 part by weight of active compound is mixed with the stated amounts of solvent and emulsifier, and the concentrate is diluted with emulsifier-containing water to the desired concentration. Cabbage leaves (Brassica oleracea) are treated by being dipped into the preparation of active compound of the desired concentration and are populated with caterpillars of the armyworm (Spodoptera frugiperda) while the leaves are still moist. After the desired period of time, the kill in % is determined. 100% means that all caterpillars have been killed; 0% means that none of the caterpillars has been killed.
# [3] = tested on: larvae of the mustard beetle (Phaedon cochleariae); experiment: Phaedon larvae test; settings: 500 ppm active compound, cabbage leaves (Brassica oleracea) dipped
# Protocol: as §1, with “Phaedon Larvae Test” for “Spodoptera frugiperda Test”, “of solvents” for “of solvent”, “with larvae” for “with caterpillars”, “the mustard beetle (Phaedon cochleariae)” for “the armyworm (Spodoptera frugiperda)”, “all beetle larvae” for “all caterpillars”, “the beetle larvae” for “the caterpillars”
compound,measurement,setting,value
Cc1ccc(-c2ccc(Cl)cc2)cc1C1=C(OC(=O)OCC(C)C)C(C)(C)ON(C)C1=O [Example I-c-1],Kill rate in % after 7^d,[1],98%
same,Kill rate in % after 7^d,[2],100%
same,Kill rate in % after 7^d,[3],100%
